{"source": "patent US20210038559A1", "about": "“CANNABINOIDS AND DERIVATIVES FOR PROMOTING IMMUNOGENICITY OF TUMOR AND INFECTED CELLS” (priority 2018, published 2021)", "note": "Counter-ions that a name gives are not always drawn."}
{"tested_on": "MHC-I expression by COLO 205 cells", "experiment": "cells", "format": "cell-based, human", "settings": "Homo sapiens, COLO 205, 48 h, MHC-I expression, COLO 205 cells, compounds at 35 μM, 48 hours, flow cytometry (W6/32); read-out: Induction Fold", "procedure": "(§1) A panel of synthetic cannabinoids (Cayman Chemical, #9002891) was tested for MHC class I-inducing capability in COLO 205 cells as described above. COLO 205 cells were treated with the compounds at a concentration of 35 μM and evaluated for cell surface MHC class I expression after 48 hours. Cells were harvested, stained with MHC-I mAb W6/32 (Thermo Fisher). MHC-I expression was determined by flow cytometry."}
{"molecule": "CC(C)(NC(=O)c1nn(CCCCC#N)c2ccccc12)c1ccccc1", "note": "[Example 281, 1-(4-cyanobutyl)-N-(1-methyl-1-phenylethyl)-1H-indazole-3-carboxamide]", "fold induction at 35 µM": 1.48}
{"molecule": "CCCCn1cc(C(=O)c2ccc(OC)cc2)c2ccccc21", "note": "[Example 282, (4-methoxyphenyl)(1-butyl-1H-indol-3-yl)-methanone]", "fold induction at 35 µM": 1.47}
{"molecule": "O=C(c1ccc(I)cc1)c1cn(CCCCCF)c2ccccc12", "note": "[Example 283, (1-(5-fluoropentyl)-1H-indol-3-yl)(4-iodophenyl)methanone]", "fold induction at 35 µM": 1.46}
{"molecule": "CC(C)Cn1cc(C(=O)c2ccc3ccccc3c2)c2ccccc21", "note": "[Example 284, (1-isobutyl-1H-indol-3-yl)(naphthalen-2-yl)methanone]", "fold induction at 35 µM": 1.46}
{"molecule": "CCCCCn1cc(C(=O)c2cccc3cc(Cl)ccc23)c2ccccc21", "note": "[Example 285, (6-chloronaphthalen-1-yl)(1-pentyl-1H-indol-3-yl)methanone]", "fold induction at 35 µM": 1.46}
{"molecule": "O=C(Nc1cccc2ccccc12)c1cn(CCCCCF)c2ccccc12", "note": "[Example 286, 1-(5-fluoropentyl)-N-(naphthalen-1-yl)-1H-indole-3-carboxamide]", "fold induction at 35 µM": 1.45}
{"molecule": "CN(C)C(=O)n1nnnc1Cc1ccc(-c2ccccc2)cc1", "note": "[Example 288, 5-([1,1′-biphenyl]-4-ylmethyl)-N,N-dimethyl-1H-tetrazole-1-carboxamide]", "fold induction at 35 µM": 1.45}
{"molecule": "CC(C)(C)C(NC(=O)c1nn(CCCCCF)c2ccccc12)C(N)=O", "note": "(stereo not shown) [Example 289, N-[1-(aminocarbonyl)-2,2-dimethylpropyl]-1-(5-fluoropentyl)-1H-indazole-3-carboxamide]", "fold induction at 35 µM": 1.44}
{"molecule": "CC(C)[C@H](NC(=O)c1nn(CCCCCF)c2ccccc12)C(N)=O", "note": "[Example 292, N-[(1S)-1-(aminocarbonyl)-2-methylpropyl]-1-(5-fluoropentyl)-1H-indazole-3-carboxamide]", "fold induction at 35 µM": 1.43}
{"molecule": "CC(F)CCCn1nc(C(=O)NC(C(N)=O)C(C)C)c2ccccc21", "note": "(stereo not shown) [Example 293, N-(1-amino-3-methyl-1-oxobutan-2-yl)-1-(4-fluoropentyl)-1H-indazole-3-carboxamide]", "fold induction at 35 µM": 1.43}
{"molecule": "CCCCCn1nc2ccccc2c1C(=O)Nc1cccc2ccccc12", "note": "[Example 294, N-(naphthalen-1-yl)-2-pentyl-2H-indazole-3-carboxamide]", "fold induction at 35 µM": 1.43}
{"molecule": "COc1cccc2c(C(=O)N[C@@H]3C(C)(C)[C@@H]4CC[C@@]3(C)C4)c(C)n(CCN3CCOCC3)c12", "note": "[Example 295, 7-methoxy-2-methyl-1-[2-(4-morpholinyl)ethyl]-N-[(1S,2S,4R)-1,3,3-trimethylbicyclo[2.2.1]hept-2-yl]-1H-indole-3-carboxamide]", "fold induction at 35 µM": 1.43}
{"molecule": "CCCC(F)Cn1cc(C(=O)Nc2cccc3ccccc23)c2ccccc21", "note": "(stereo not shown) [Example 296, 1-(2-fluoropentyl)-N-(naphthalen-1-yl)-1H-indole-3-carboxamide]", "fold induction at 35 µM": 1.43}
{"molecule": "CC(C)(C)C(NC(=O)c1cn(CCCCCF)c2ccccc12)C(N)=O", "note": "(stereo not shown) [Example 297, N-[1-(aminocarbonyl)-2,2-dimethylpropyl]-1-(5-fluoropentyl)-1H-indole-3-carboxamide]", "fold induction at 35 µM": 1.42}
{"molecule": "CCCCCn1cc(C(=O)c2cccc3cc(OC)ccc23)c2ccccc21", "note": "[Example 300, (6-methoxy-1-naphthalenyl)(1-pentyl-1H-indol-3-yl)-methanone]", "fold induction at 35 µM": 1.42}
{"molecule": "CCCCCCc1ccc(O)cc1OCCCCCCCCCCC(=O)NC1CC1", "note": "[Example 302, N-cyclopropyl-11-(2-hexyl-5-hydroxyphenoxy)-undecanamide]", "fold induction at 35 µM": 1.4}
{"molecule": "CCCCCC1=C/C(=C\\c2cccc3ccccc23)c2ccccc21", "note": "[Example 303, 1-[(E)-(3-pentyl-1H-inden-1-ylidene)methyl]-naphthalene]", "fold induction at 35 µM": 1.39}
{"molecule": "CN1CCCCC(n2cc(C(=O)C3C(C)(C)C3(C)C)c3ccccc32)C1", "note": "(stereo not shown) [Example 305, (1-(1-methylazepan-3-yl)-1H-indol-3-yl)(2,2,3,3-tetramethylcyclopropyl)methanone]", "fold induction at 35 µM": 1.38}
{"molecule": "O=C(NCc1ccccc1)c1cn(CCCCCF)c2ccccc12", "note": "[Example 306, 1-(5-fluoropentyl)-N-(phenylmethyl)-1H-indole-3-carboxamide]", "fold induction at 35 µM": 1.38}
{"molecule": "CCCCCn1cc(C(=O)Nc2ccccc2)c2ccccc21", "note": "[Example 307, 1-pentyl-N-phenyl-1H-indole-3-carboxamide]", "fold induction at 35 µM": 1.38}
{"molecule": "COc1ccc(C(=O)c2c(C)n(CCN3CCOCC3)c3ccccc23)cc1", "note": "[Example 308]", "fold induction at 35 µM": 1.38}
{"molecule": "COc1ccc(C(=O)c2c(C)n(CCN3CCOCC3)c3cc(Br)ccc23)cc1", "note": "[Example 310, [6-bromo-2-methyl-1-[2-(4-morpholinyl)ethyl]-1H-indol-3-yl](4-methoxyphenyl)-methanone]", "fold induction at 35 µM": 1.37}
{"molecule": "CC(C)[C@H](NC(=O)c1cn(CCCCCF)c2ccccc12)C(N)=O", "note": "[Example 312, N-[(1S)-1-(aminocarbonyl)-2-methylpropyl]-1-(5-fluoropentyl)-1H-indole-3-carboxamide]", "fold induction at 35 µM": 1.35}
{"molecule": "CC(C)(NC(=O)c1cn(CCCCCF)c2ncccc12)c1ccccc1", "note": "[Example 313, 1-(5-fluoropentyl)-N-(2-phenylpropan-2-yl)-1H-pyrrolo[2,3-b] pyridine-3-carboxamide]", "fold induction at 35 µM": 1.33}
{"molecule": "O=C(Oc1ccc2ncccc2c1)c1cn(CC2CCCCC2)c2ccccc12", "note": "[Example 314, quinolin-6-yl 1-(cyclohexylmethyl)-1H-indole-3-carboxylate]", "fold induction at 35 µM": 1.32}
{"molecule": "CCCCCn1c2ccccc2c2cc(C(=O)c3cccc4ccccc34)ccc21", "note": "[Example 315, naphthalen-1-yl(9-pentyl-9H-carbazol-3-yl)methanone]", "fold induction at 35 µM": 1.32}
{"molecule": "CC(F)CCCn1cc(C(=O)c2cccc3ccccc23)c2ccccc21", "note": "(stereo not shown) [Example 316, (1-(4-fluoropentyl)-1H-indol-3-yl)(naphthalen-1-yl)methanone]", "fold induction at 35 µM": 1.32}
{"molecule": "CCCC(F)Cn1nc(C(=O)NC(C(N)=O)C(C)C)c2ccccc21", "note": "(stereo not shown) [Example 317, N-(1-amino-3-methyl-1-oxobutan-2-yl)-1-(2-fluoropentyl)-1H-indazole-3-carboxamide]", "fold induction at 35 µM": 1.31}
{"molecule": "O=C(c1ccc2c(c1)c1ccccc1n2CCCCCF)c1cccc2ccccc12", "note": "[Example 318, (9-(5-fluoropentyl)-9H-carbazol-3-yl)(naphthalen-1-yl)methanone]", "fold induction at 35 µM": 1.31}
{"molecule": "COc1ccc(C(=O)c2c(C)n(CCN3CCOCC3)c3cc(I)ccc23)cc1", "note": "[Example 320, [6-iodo-2-methyl-1-[2-(4-morpholinyl)ethyl]-1H-indol-3-yl](4-methoxyphenyl)-methanone]", "fold induction at 35 µM": 1.3}
{"molecule": "CC(C)[C@H](NC(=O)c1cc(-c2ccc(F)cc2)nn1CCCCCF)C(N)=O", "note": "[Example 321, (S)-N-(1-amino-3-methyl-1-oxobutan-2-yl)-1-(5-fluoropentyl)-3-(4-fluorophenyl)-1H-pyrazole-5-carboxamide]", "fold induction at 35 µM": 1.29}
{"molecule": "CC(C)(NC(=O)c1nn(CC2CCOCC2)c2ccccc12)c1ccccc1", "note": "[Example 322, N-(1-methyl-1-phenylethyl)-1-[(tetrahydro-2H-pyran-4-yl)methyl]-1H-indazole-3-carboxamide]", "fold induction at 35 µM": 1.27}
{"molecule": "CC(C)[C@H](NC(=O)c1cn(Cc2ccccc2)c2ccccc12)C(N)=O", "note": "[Example 323, N-[(1S)-1-(aminocarbonyl)-2-methylpropyl]-1-(phenylmethyl)-1H-indole-3-carboxamide]", "fold induction at 35 µM": 1.26}
{"molecule": "O=C(c1cn(CCCCCF)c2ccccc12)N1CCN(Cc2ccccc2)CC1", "note": "[Example 324, (4-benzylpiperazin-1-yl)(1-(5-fluoropentyl)-1H-indol-3-yl)methanone, monohydrochloride]", "fold induction at 35 µM": 1.26}
{"molecule": "CCCCn1cc(C(=O)c2ccc3ccccc3c2)c2ccccc21", "note": "[Example 325, (1-butyl-1H-indol-3-yl)(naphthalen-2-yl)-methanone]", "fold induction at 35 µM": 1.26}
{"molecule": "CCCCCn1c(C)c(C(=O)c2ccc(C)c3ccccc23)c2ccccc21", "note": "[Example 326, (4-methyl-1-naphthalenyl)(2-methyl-1-pentyl-1H-indol-3-yl)-methanone]", "fold induction at 35 µM": 1.25}
{"molecule": "O=C(Oc1ccc2cnccc2c1)c1cn(CC2CCCCC2)c2ccccc12", "note": "[Example 327, isoquinolin-6-yl 1-(cyclohexylmethyl)-1H-indole-3-carboxylate]", "fold induction at 35 µM": 1.24}
{"molecule": "CCCCCn1cc(C(=O)N[C@H](C(=O)OC)C(C)C)c2ccccc21", "note": "[Example 328, N-[(1-pentyl-1H-indol-3-yl)carbonyl]-L-valine, methyl ester]", "fold induction at 35 µM": 1.24}
{"molecule": "CCCCCn1cc(C(=O)Nc2cccc3ccccc23)c2ccccc21", "note": "[Example 329, N-1-naphthalenyl-1-pentyl-1H-indole-3-carboxamide]", "fold induction at 35 µM": 1.23}
{"tested_on": "MHC-I expression by COLO 205 cells", "experiment": "cells", "format": "cell-based, human", "settings": "Homo sapiens, COLO 205, 48 h, read-out: Induction Fold", "procedure": "as §1"}
{"molecule": "CCCCCCC(C)(C)c1cc(OC)c(C2C=C(CO)C3CC2C3(C)C)c(OC)c1", "note": "(stereo not shown) [Example 304, 4-[4-(1,1-dimethylheptyl)-2,6-dimethoxyphenyl]-6,6-dimethyl-bicyclo[3.1.1]hept-2-ene-2-methanol]", "fold induction at 35 µM": 1.39}
{"tested_on": "MHC-I expression by COLO 205 cells", "experiment": "cells", "format": "cell-based, human", "settings": "MHC-I expression, COLO 205 cells, compounds at 35 μM, 48 hours, flow cytometry (W6/32)", "procedure": "as §1", "units": {"Induction Fold": "Fold"}}
{"molecule": "O=C(NC12CC3CC(CC(C3)C1)C2)c1nn(CCCCCF)c2ccccc12", "note": "[Example 309, N-((3s,5s,7s)-adamantan-1-yl)-1-(5-fluoropentyl)-1H-indazole-3-carboxamide]", "Induction Fold": 1.37}
{"molecule": "O=C(Oc1cccc2cccnc12)c1nn(CCCCCF)c2ccccc12", "note": "[Example 311, 1-(5-fluoropentyl)-8-quinolinyl ester-1H-indazole-3-carboxylic acid]", "Induction Fold": 1.36}
{"molecule": "O=C(NC12CC3CC(CC(C3)C1)C2)c1cn(CCCCCF)c2ccccc12", "note": "[Example 319, 1-(5-fluoropentyl)-N-tricyclo[3.3.1.13,7] dec-1-yl-1H-indole-3-carboxamide]", "Induction Fold": 1.31}
